Consider twelve compounds from ChEMBL document CHEMBL1795257, “Synthesis of new opioid derivatives with a propellane skeleton and their pharmacology: part 1” (Bioorg Med Chem Lett, 2011).

For orientation: Ki means a dissociation constant, usually derived from enzyme kinetics or from competition with a known ligand. A lower Ki goes with higher affinity. In general, ED50 refers to the dose at which the effect has come halfway, by size or by number of responders.

The source made the active and inactive calls. The rule behind the calls is not given here.

One assay is filed under the species Cavia porcellus. As to the kind of experiment: Selectivity ratio of Ki for delta opioid receptor in guinea pig forebrain homogenate to Ki for kappa opioid receptor in guinea pig cerebellum homogenate. It is filed as tissue-based.
The nature of assay [1]: Displacement of [3H]NTI from delta opioid receptor in guinea pig forebrain homogenate by scintillation counting. It is filed as tissue-based, Cavia porcellus, Brain.
In a further assay the target is Mu-type opioid receptor (Cavia porcellus, UniProt P97266). As to the kind of experiment: Displacement of [3H]DAMGO from mu opioid receptor in guinea pig forebrain homogenate by scintillation counting. It is filed as tissue-based, Brain. On the technique in general: Displacement assays read how much labelled ligand stays bound in the presence of the test substance.

For assay [2], the target named is Kappa-type opioid receptor (Cavia porcellus, UniProt P41144). As to the kind of experiment: Displacement of [3H]U69593 from kappa opioid receptor in guinea pig cerebellum homogenate by scintillation counting. It counts as tissue-based.
Assay [3] has as its system Mus musculus. Put plainly: Antinociceptive activity in sc dosed mouse assessed as inhibition of acetic acid-induced writhing. It counts as functional.
Assay [4] relates to Mus musculus. As to the kind of experiment: Antinociceptive activity in sc dosed mouse assessed as inhibition of acetic acid-induced writhing in presence of kappa opioid antagonist nor-BNI. It is filed as functional, organism-based.
The subject of assay [5] is Mus musculus. Put plainly: Antinociceptive activity in sc dosed mouse assessed as inhibition of acetic acid-induced writhing in presence of mu opioid […] naloxone. It counts as functional, organism-based. (In writhing tests, fewer writhes than in controls are read as antinociception.)

Sequence of Kappa-type opioid receptor (P41144 whole entry): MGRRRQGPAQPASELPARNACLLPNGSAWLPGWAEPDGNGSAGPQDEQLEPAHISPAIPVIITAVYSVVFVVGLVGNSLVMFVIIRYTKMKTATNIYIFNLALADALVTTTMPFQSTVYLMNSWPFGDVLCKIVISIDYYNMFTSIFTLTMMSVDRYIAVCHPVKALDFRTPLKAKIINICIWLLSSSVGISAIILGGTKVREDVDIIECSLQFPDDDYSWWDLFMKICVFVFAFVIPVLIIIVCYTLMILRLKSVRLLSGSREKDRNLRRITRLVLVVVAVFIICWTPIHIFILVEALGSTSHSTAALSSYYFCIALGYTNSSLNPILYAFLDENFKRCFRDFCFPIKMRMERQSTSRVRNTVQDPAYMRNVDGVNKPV
Sequence of Mu-type opioid receptor (P97266 whole entry): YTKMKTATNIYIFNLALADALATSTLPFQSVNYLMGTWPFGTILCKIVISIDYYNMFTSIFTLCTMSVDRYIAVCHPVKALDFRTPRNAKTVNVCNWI

`OCC12CC[C@@]3(O1)[C@H]1Cc4ccc(O)cc4[C@@]3(CCN1CC1CC1)C2`: the Ratio Ki in the assay listed under Cavia porcellus worked out at 35.

In the case of `CCC12CCN(CC3(O)CC3)[C@H](Cc3ccc(O)cc31)C2(C)C`, the Ki came out at 0.9 nM in assay [1] and 0.2 nM on Mu-type opioid receptor.

Regarding `O=C1CC[C@@]2(O)[C@H]3Cc4ccc(O)cc4[C@@]2(CCN3CC2CC2)C1`, the Ratio Ki in the assay filed under Cavia porcellus is 48. Also, the Ki turned out to be 0.038 nM in assay [2], 1.82 nM in assay [1] and 0.14 nM on Mu-type opioid receptor.

Turning to `CN1CC[C@]23c4c5ccc(O)c4O[C@H]2[C@@H](O)C=C[C@H]3[C@H]1C5`, the result with Mus musculus [3] was Active.

Consider `O=C1CC23CCN(CC4CC4)C(Cc4ccc(O)cc42)C32CCC1O2` (centres undefined), for which the Ratio Ki in the assay listed under Cavia porcellus turned out to be 30.

In the case of `O=C1CC[C@@]2(O)[C@H]3Cc4ccc(O)c5c4[C@@]2(CCN3CC2CC2)[C@H]1O5`, in the assay listed under Cavia porcellus, the Ratio Ki is 56.

In assay [1], `CN1CC[C@]23c4c5ccc(O)c4O[C@H]2C(=O)CC[C@@]3(O)[C@H]1C5` [OXYMORPHONE] had a Ki of 42.7 nM.

Turning to `CN1CCC23CC(=O)CCC2(Cc2ccc(O)cc23)C1` (centres undefined), in the assay listed under Cavia porcellus, the Ratio Ki came out at 1.7. Further, the Ki was found to be 255 nM in assay [2], 441 nM in assay [1] and 3.6 nM on Mu-type opioid receptor.

As for `O=C1CCC23Cc4ccc(O)cc4C2(CCN(CC2CC2)C3)C1` (centres undefined), the Ratio Ki in the assay filed under Cavia porcellus was determined as 26. Also, the Ki in assay [2] came to 17.4 nM; in assay [1] it was 448 nM; on Mu-type opioid receptor, 58.2 nM. The ED50 in the assay with Mus musculus [3] was found to be 0.86 mg/kg. The outcome in the assay with Mus musculus [4] and in the assay on Mus musculus [5] was inactive.

As for `CC(C)=CCN1CC[C@@]2(C)c3cc(O)ccc3C[C@@H]1[C@@H]2C`, in the assay listed under Cavia porcellus, the Ratio Ki amounted to 6.4. Further, the Ki in assay [2] worked out at 3.6 nM; in assay [1], 23.1 nM; at Mu-type opioid receptor it was 4.6 nM.

As for `Oc1ccc2c3c1OC1C4(O)CC[C@@]5(OC4)[C@@H](C2)N(CC2CC2)CC[C@]315` (some centres undefined), in the assay listed under Cavia porcellus, the Ratio Ki was 30. Moreover, the Ki in assay [2] worked out at 0.34 nM; in assay [1], 10.3 nM; at Mu-type opioid receptor, 0.16 nM.

With `O=C1CCC23Cc4ccc(O)cc4C2(CCN(CC2(O)CC2)C3)C1` (centres undefined), in the assay listed under Cavia porcellus, the Ratio Ki is 23. Further, the Ki in assay [2] was found to be 21.7 nM; in assay [1], 500 nM; on Mu-type opioid receptor it was 77.7 nM.
